Measurements as given in patent US20260318831A1 (University of Cincinnati, priority 2023, published 2026).

Legend:
HeLa cells [1] = test: Background fluorescence / signal-to-noise comparison with LysoTracker Red; type: cell-based; details: compared with LTR, same imaging conditions
From the text: Since PyQPMe has a large Stokes shift and strong fluorescence intensity, it can effectively reduce the background noise caused by excitation light and microenvironments. To illustrate this merit, the commercial lysosome dye (LysoTracker Red, LTR) was selected for comparison. Two different regions of the background were randomly chosen in each fluorescence image and plotted their 3D fluorescence intensity distribution maps, as shown in FIG. 4E.
(§1) Leica Stellaris 8 Confocal imaging. High-resolution images were acquired on a commercial Leica Stellaris 8 Confocal Microscope under LIGHTNING mode. Laser powers were set at 10% intensity for 405 nm and 640 nm channels. The objective was 63×/1.4. High-resolution images were captured from the randomly selected field of view and analyzed with Leica LAS X and ImageJ software. All the images were exported on the Auto scale of the Leica LAS X software. Cells were seeded on glassed-bottomed cell dishes (MatTek) for 24 hours. Cells stained with PyQPMe (20 nM, 10 min) were treated with Wortmannin (1 μM, 24 h), CCCP ([…], 24 h), rapamycin (0.5 μM, 24 h), chloroquine (25 μM, 30 min), and NH4Cl (50 mM, 30 min). All PCC values were analyzed in the CellProfiler.

[2] = Effect of potential biochemical species on fluorescence intensity; type: physicochemical; details: pH 3.0 or 8.2; cations, anions, H2O2, Cys, Hcy, GSH
From the text: (§2) Next, the effect of potential biochemical species on the fluorescence intensity of PyQPMe in both pH 3.0 and 8.2 buffer solutions was investigated. […] Fluorescence spectra of PyQPMe in various solvents with different polarities were also obtained. […] Furthermore, the photostability of PyQPMe was investigated under different pH conditions. […] Taken together, the above photophysical results identify that PyQPMe is a pH-sensitive probe, well suited for studying endolysosome dynamics via high-resolution imaging techniques.

[3] = Fluorescence emission of PyQPMe in buffer solutions with different pH; type: physicochemical
From the text: (§3) In some aspects, the fluorescence of the probe changes as the pH of an endolysosome changes, such as between a pH range of about 8.0 to about 2.0. With the designed probe PyQPMe in hand, its UV-visible absorption was screened in aqueous buffers with a pH range of 8.0 to 4.0. […] Simultaneously, a new absorption maximum at 447 nm (ε=27,264 M^−1 cm^−1) rises with its tail exceeding 600 nm in pH 4.0 buffer solution. […] In addition, the fluorescence intensities of PyQPMe used for different imaging channels of the microscope were compared, where the wavelengths of 500 nm and 645 nm represent the green and red channels, respectively. When the buffer solution is much more acidic, the fluorescence intensity ratio of I645 nm/I500 nm is higher than 1 (FIG. 2C), indicating red color dominates the fluorescence of PyQPMe. Conversely, with increasing the pH value, green fluorescence light is becoming the predominant color for imaging.
as §2
(§4) Phosphate buffer solution. A series of standard pH buffer solutions were prepared by mixing 0.2 M Na2HPO4·7H2O, 0.2 M KH2PO4, and 0.2 M H3PO4 with varied volume ratios, and the pH values were measured by using a Mettler Toledo pH-meter.
(§5) Absorption and emission measurements. 3.0 mL phosphate buffer solution and 6.44 μL probe stock solution (4.66 mM) were mixed well, and an appropriate portion of the solution was transferred to a quartz cell with 1 cm optical length to collect the absorption spectra on an Agilent Cary 453 spectrophotometer. The fluorescence spectra were recorded on a HORIBA Fluorolog QM spectrofluorometer.
Fluorescence reversibility of PyQPMe. The pH of a PyQPMe solution between pH 3.0 and pH 8.5 was adjusted back and forth by adding 2.0 M KOH or 3.0 M HCl, which was monitored by a Mettler Toledo pH meter.

HeLa cells [4] = test: Confocal imaging of PyQPMe uptake by endocytosis; type: cell-based
Protocol: In some aspects, the probes of the present disclosure can be administered to living cells, either in vitro or in vivo. To take advantage of the absorption and emission spectra of PyQPMe, this probe was administered in high-resolution microscopy for living cells. The toxicity of PyQPMe was examined at first before characterizing its imaging properties. Cell Counting Kit-8 (CCK-8) was used to investigate the viability of HeLa cells stained with PyQPMe. […] Next, PyQPMe was characterized by Leica Stellaris Confocal Microscope in the LIGHTNING module for high-resolution imaging. […] The signal tended to be endolysosomes because endolysosomes have a low pH range from 4.7 to 6.3. […] Since low temperatures can inhibit endocytosis, experiments at a lower temperature were performed.
as §1

[5] = Photostability under irradiation in neutral and acidic solutions; type: physicochemical; details: 300 s irradiation
From the text: as §2

[6] = system: endolysosomes in HeLa cells; test: Resolution limit in LIGHTNING confocal images; type: cell-based
From the text: The fluorescence images of PyQPMe were compared before and after the LIGHTNING module. […] To test the resolution limit of PyQPMe, confocal images were stochastically selected, and underlined the areas with luminescence in the images (FIG. 4A, 4C). The FWHMs (full width at half maximum) of these bright puncta fluorescence of PyQPMe-stained endolysosomes and later endosomes/lysosomes are down to 174 nm and 184 nm (FIG. 4B, 4D), respectively.
as §1

[7] = UV-visible absorption of PyQPMe in aqueous buffers pH 4.0-8.0; type: physicochemical
From the text: as §3, §4, §5

maximum emission peak ([3]; 405 nm excitation, neutral solution): 510 nm
new emission peak ([3]; 405 nm excitation, pH decreased from 8.0 to 4.0): 650 nm
Stokes shift ([3]; acid solution): greater than 200 nm
reversibility of emission spectra ([3]; between pH 8.5 and pH 3.0): excellent reversibility
cut-off pH for the red to green fluorescence intensity ratio ([3]; from FIG. 2C): 5-6
fluorescence intensity ratio I645 nm/I500 nm ([3]; much more acidic buffer solution): higher than 1
quantum yield ([3]; pH 4.0 buffer solution): 0.23%
red shift of emission ([3]; pH decreased from 8.0 to 4.0): 140 nm
emission intensity ratio I510 nm/I650 nm against pH ([3]; pH titration curve): decent linear relationship
photostability: change of fluorescence intensity [5]: negligible change
pKa ([7]; aqueous buffers, from absorption at 394 and 447 nm, pH 8.0 to 4.0, read-out: apparent pKa value): ~5
absorption maximum ([7]; neutral condition): 394 nm
ε at absorption maximum 394 nm ([7]; neutral condition): 34,147 M^−1cm^−1
new absorption maximum ([7]; pH 4.0 buffer solution): 447 nm
ε at absorption maximum 447 nm ([7]; pH 4.0 buffer solution): 27,264 M^−1 cm^−1
SMILES: CN1CCN(c2ccc(/C=C/c3ccc4cc(-c5ccncc5)ccc4[n+]3C)cc2)CC1 [PyQPMe, (E)-1-methyl-2-(4-(4-methylpiperazin-1-yl)styryl)-6-(pyridin-4-yl)quinolin-1-ium]
background fluorescence of confocal images (HeLa cells [1]): significantly reduced
signal-to-noise ratio (HeLa cells [1]): better than that of LTR
effect of interfering substances on emission intensity [2]: none of these interfering substances could quench the emission intensity
fluorescence over pH window ([3]; pH 8.0 to 4.0): remains fluorescent within the entire pH window
effect of solvent polarity on fluorescence ([3]; various solvents with different polarities): polarity has no effect on the fluorescence
fluorescence signal inside HeLa cells at high concentration (HeLa cells [4]; 2 μM PyQPMe): same fluorescence signal inside HeLa cells could be observed
endolysosomes detected at low temperature (HeLa cells [4]; 4° C. vs 37° C.): Fewer endolysosomes were detected
fluorescence in HeLa cells (HeLa cells [4]; 405 nm excitation, 10 min incubation): punctate fluorescence signals in the cytoplasm
FWHM of puncta, endolysosomes ([6]; PyQPMe-stained endolysosomes): 174 nm
FWHM of puncta, late endosomes/lysosomes ([6]; PyQPMe-stained late endosomes/lysosomes): 184 nm
